Experimental findings from patent US7375088B2, “Polyene polyketides, processes for their production and their use as a pharmaceutical” (Thallion Pharmaceuticals Inc., priority 2003, dated 2008) are described below.

In test [1] the test system is HOP92/non-small cell lung carcinoma. Nature of the test: NCI in vitro antiproliferative screen (SRB, GI50). The class given is cell-based, human. The method, then:
(§1) In Vitro antipoliferative study of Compound 2a was performed by the National Cancer Institute (National Institutes of Health, Bethesda, Md., USA) against a panel of cancer cell lines in order to determine the concentrations needed to obtain a 50% inhibition of cell proliferation (IC50). The operation of this unique screen utilizes 60 different human tumor cell lines, representing leukemia, melanoma, and cancers of the lung, colon, brain, ovary, breast prostate and kidney. Compound 2(a) was provided as a lyophilized powder with an estimated purity of 90+%. The compound was stored at −20° C. until day of use.
(§2) The human tumor cell lines of the cancer-screening panel were grown in RPMI 1640 medium containing 5% fetal bovine serum and 2 mM L-glutamine. For a typical screening experiment, cells were inoculated into 96 well microtiter plates in 100 μl at plating densities ranging from 5000 to 40,000 cells/well depending on the doubling time of individual cell lines (Table 8). After cell inoculation, the microtiter plates were incubated at 37° C., under 5% CO2, 95% air and 100% relative humidity for 24 hours prior to addition of the experimental drugs.
(§3) After 24 hours, two plates of each cell line were fixed in situ with TCA, to represent a measurement of the cell population for each cell line at the time of drug addition (Tz). Compound 2(a) was solubilized in dimethyl sulfoxide at 400-fold the desired final maximum test concentration and stored frozen prior to use. At the time of drug addition, an aliquot of frozen concentrate was thawed and diluted to twice the desired final maximum test concentration with complete medium containing 50 μg/ml gentamicin. Additional four, serial dilutions were made to provide a total of five drug concentrations plus control. Aliquots of 100 μl of these different drug dilutions were added to the appropriate microtiter wells already containing 100 μl of medium, resulting in the required final drug concentrations (2.5×10^−5 M to 2.5×10^−9 M).
(§4) Following drug addition, the plates were incubated for an additional 48 hours at 37° C., 5% CO2, 95% air, and 100% relative humidity. For adherent cells, the assay was terminated by the addition of cold TCA. Cells were fixed in situ by the gentle addition of 50 μl of cold 50% (w/v) TCA (final concentration, 10% TCA) and incubation for 60 minutes at 4° C. The supernatant was discarded, and the plates were washed five times with tap water and air-dried. Sulforhodamine B (SRB) solution (100 μl) at 0.4% (w/v) in 1% acetic acid was added to each well, and plates were incubated for 10 minutes at room temperature. After staining, unbound dye was removed by washing five times with 1% acetic acid and the plates were air-dried. Bound stain was subsequently solubilized with 10 mM trizma base, and the absorbance was read on an automated plate reader at a wavelength of 515 nm. For suspension cells, the methodology was the same except that the assay was terminated by fixing settled cells at the bottom of the wells by gently adding 50 μl of 80% TCA (final concentration, 16% TCA).
(§5) The growth inhibitory power of compound 2(a) was measured by NCl utilizing the GI50 value, rather than the classical IC50 value. The GI50 value emphasizes the correction for the cell count at time zero and, using the seven adsorbance measurements [time zero (Tz), control growth (C), and the test growth in the presence of drug at each of the five concentration levels (Ti)], GI50 is calculated as [(Ti−Tz)/(C−Tz)×100=−50. which is the drug concentration resulting in a 50% reduction in the net protein increase (as measured by SRB staining) in control cells during the drug incubation.

Test [2] has as its system SN12C/renal carcinoma. Nature of the test: NCI in vitro antiproliferative screen (SRB, GI50). The class given is cell-based, human. The method, then: as §1, §2, §3, §4, §5
For test [3], the system named is HCC2998/colon carcinoma. Briefly: NCI in vitro antiproliferative screen (SRB, GI50). The class given is cell-based, human. The method, then: as §1, §2, §3, §4, §5
The test system of test [4] is Saccharomyces cerevisiae ATCC 9763. Nature of the test: MIC broth microdilution assay. Background: In broth dilution the organism is exposed to a series of concentrations in liquid medium.
Protocol: (§6) Test compound preparation: The test article was prepared as 100× stock solutions in DMSO, with concentrations ranging from 3.2 mg/ml to 0.0625 mg/ml (a two-fold dilution series over 10 points). The first dilution (3.2 mg/ml) was prepared by resuspending 0.5 mg of each test article in 156.25 μl of DMSO. The stock is then serially diluted by two-fold increments to obtain the desired concentration range.
(§7) Inoculum preparation: For fungal strains, the inoculum was prepared as follows. From an overnight culture in Yeast Media broth, cell density was adjusted in 0.85% saline to 0.5 McFarland. This procedure yielded a stock suspension of about 5×10^6 cells/ml. Following thorough vortexing, a working suspension was prepared by diluting the stock 1:50 in RPMI 1640, and then further diluting it 1:20 with RPMI 1640 to obtain the 2× test inoculum (about 5×10^3 cells/ml). For filamentous fungi, the inoculum was prepared as follows. […]
(§8) 50 μl of the final cell dilution (yeast, filamentous fungi or bacteria) of each indicator strain was added to each corresponding well of the microplate containing 50 μl of diluted drug or media alone. […] MIC readings were determined at 24 and 48 hrs for the Candida and Aspergillus species, and at 48 and 72 hrs for Cryptococcus neoformans. MIC readout for each indicator was determined as the lowest concentration of test compound resulting in total absence of growth.
In test [5] the test system is Aspergillus fumigatus ATCC 204305. Briefly: MIC broth microdilution assay.
Protocol: as §6, §7, §8
Test [6] deals with C. albicans SC5314. Nature of the test: Mouse model of disseminated candidiasis (survival). The class given is in vivo. The settings on record: for Median survival: CD-1 mice infected i.v. with C. albicans SC5314, observed 21 days. The method, then: Compound 2(a) was provided as a dry powder with an estimated purity of 95+%. Fungizone (amphotericin B desoxycholate, to be used as a comparitor), was also provided as a dry powder with an estimated purity of 95+%. The compound 2(a) and Fungizone were stored as dry powders at −80° C. until the day of administration.
Female mice (species Mus musculus, strain CD-1, Charles River) with body weight range of 22-24 g were used in the study. […] All animal experiments were performed at the Ste-Justine Hospital (Montreal, Quebec) according to ethical guidelines of animal experimentation of the ethical committee of the hospital. During the study, dead or apparently sick animals were promptly removed and sick mice were euthanized upon removal from the cage.
The animals were maintained in rooms under controlled conditions of temperature (23±2° C.), humidity (45±5%), photoperiodicity (12 hrs light/12 hrs dark) and air exchange. The animals were housed in polycarbonate cages (4/single cage) equipped to provide food and water. Sterile wood shavings were used for animal bedding and the bedding was replaced every other day. Food (Harlam Tecklab, Canada) and autoclaved tap water was provided ab libitum, the food being placed in the metal lid on top of the cage. Water bottles were equipped with rubber stoppers and sipper tubes and were cleaned, sterilized and replaced once a week.
Six groups of mice (10 mice per group) were infected intravenously with 3×10^6 CFU of C. albicans SC5314 as previously described (see Dubois, N., et al., Microbiology 1998, 144: 2299-2310). Twenty-four hours after infection, each individual group of mice was treated with Compound 2(a) (1 or 3 mg/kg i.p.), Fungizone (0.25, 0.5 or 1 mg/kg i.p.) as comparitor, or sham-treated with sterile water containing 5% dextrose and 3% DMSO. Each animal received 100 μl of test solution.
The treatment regimen was repeated once daily for a total of 4 days. The mice were observed twice daily for signs of morbidity over 21 days. Moribund animals were scored as non-survivors and euthanized by CO2 inhalation. […]

In test [7] the test system is Candida krusei LSPQ 0309. Briefly: MIC broth microdilution assay. The settings on record: Pichia kudriavzevii.
Protocol: as §6, §7, §8
The test system of test [8] is Candida albicans ATCC 10231. Briefly: MIC broth microdilution assay.
Protocol: as §6, §7, §8

Converted amounts (≈) assume the structure as drawn.

In the case of `CC(C=CCCC=CC=CC=CC=CC(=O)NC1=C(O)CCC1=O)C(O)C(C)C(O)C=CC=CC=CC=CC=CCC(OC1OC(C)C(O)C(O)C1O)C(C)C(=O)CC(O)CC(O)CC(O)C=CCC(O)CC(O)CC(O)CC(O)C=CCC(O)CC(O)CCCN` (centres unmarked) [Compound 2(a), 56-Amino-15,17,33,35,37,41,43,45,47,51,53-undecahydroxy-14,16,30-trimethyl-31-oxo-29-(3,4,5-trihydroxy-6-methyl-tetrahydro-pyran-2-yloxy)-hexapentaconta-2,4,6,8,12,18,20,22,24,26,38,48-dodecaenoic acid (2-hydroxy-5-oxo-cyclopent-1-enyl)-amide], the “GI50 level” value is recorded as “nanomolar or picomolar level” in test [1] (HOP92/non-small cell lung carcinoma, 48 hours); “nanomolar or picomolar level” in test [2] (SN12C/renal carcinoma, 48 hours); “nanomolar or picomolar level” in test [3] (HCC2998/colon carcinoma, 48 hours). For the same molecule, the 50% growth inhibitory concentration (GI50) (commonly the concentration that inhibits growth by half) is 97.7 nM in test [1] (Homo sapiens, HOP-92, Non-small cell lung cancer, 48 h); 138 nM in test [2] (Homo sapiens, SN12C, Renal cancer, 48 h); 60.3 nM in test [3] (Homo sapiens, HCC-2998, Colon cancer, 48 h). Also, the MIC (in general, the least concentration at which growth counts as inhibited) in test [4] (ATCC9763, 24 h) was 4 µg/mL (≈ 3.08 µM); in test [4] (ATCC9763, 48 h) it was 4 µg/mL (≈ 3.08 µM); in test [5] (ATCC204305, 24 h), 16 µg/mL (≈ 12.3 µM); in test [5] (ATCC204305, 48 h), 16 µg/mL (≈ 12.3 µM); in test [7] (LSPQ0309, 24 h) it was 8 µg/mL (≈ 6.17 µM); in test [7] (LSPQ0309, 48 h), 8 µg/mL (≈ 6.17 µM). In addition, the MIC turned out to be 4 µg/mL (≈ 3.08 µM) in test [8] (ATCC10231, 24 h) and 4 µg/mL (≈ 3.08 µM) in test [8] (ATCC10231, 48 h). Also, the Median survival in test [6] (1.0 mg/kg i.p. once daily for 4 days) was 8.5 days; in test [6] (3.0 mg/kg i.p. once daily for 4 days), 20 days. Also, the “increase of the median survival time of infected mice” value in test [6] (versus vehicle (median survival 5 days)) came to 4 fold.
